Experimental data: patent US8642801B2 (BHI Limited Partnership, priority 2003, dated 2014)

Key:
[1] = molecular target: T1, Aβ40 and Aβ42 peptides in plasma and brain of TgCRND8 mice (Homo sapiens, UniProt P05067); assay: Long term treatment in adult transgenic CRND8 mice overexpressing βAPP: Aβ levels in plasma and brain by ELISA; type: in vivo, Mouse; settings: BX subcutaneous, BW and BZ oral, vs vehicle or methylcellulose control
T1 construct: ELISA using Human Aβ40 and Aβ42 Fluorometric ELISA kits from Biosource; from tissue; host or cells: plasma and brain homogenate of TgCRND8 transgenic mice (hAPP transgene)
Text: (§1) Transgenic mice, TgCRND8, as those used in the short term treatment, overexpress a human APP gene with the Swedish and Indiana mutations leading to the production of high levels of the amyloid peptides and to the development of an early-onset, aggressive development of brain amyloidosis. The high levels of Aβ peptides and the relative overabundance of Aβ42 compared to Aβ40 are believed to be associated with the severe and early degenerative pathology observed. The pattern of amyloid deposition, presence of dystrophic neuritis, and cognitive deficit has been well documented in this transgenic mouse line. The levels of Aβ peptides in the brain of these mice increase dramatically as the animals age. While the total amyloid peptide levels increase from ˜1.6×10^5 pg/g of brain to ˜3.8×10^6 between 9 and 17 weeks of age.
(§2) The long-term therapeutic effects of compounds of the present invention on cerebral amyloid deposition and β-amyloid (Aβ) levels in the plasma and in the brains of transgenic mice, TgCRND8, expressing the human amyloid precursor protein (hAPP) was studied. These compounds were administered over an 8 or 16 week period at the end of which the levels of Aβ peptides in the plasma and brain of TgCRND8 animals were determined. The goal of this study was to evaluate the efficacy of the compounds at modulating the progression of the amyloidogenic process in the brain and in the plasma of a transgenic mouse model of Alzheimer's disease (AD)
(§3) The mice used in the study consisted of animals bearing one copy of the hAPP gene (+/−) from the 2nd and 3rd generation progenies (N2 and N3) derived from backcrosses from TgCRND8.FVB(N2)AJ(N3) with B6AF1/J hybrid animals. N1=TgCRND8.FVB(N2)AJ(N3)×B6AF1/J N2=TgCRND8.FVB(N2)AJ(N3).B6AF1/J(N1)×B6AF1/J N3=TgCRND8.FVB(N2)AJ(N3).B6AF1/J(N2)×B6AF1/a
(§4) The following abbreviations are used to designate these animals in the present study: TgCRND8.B6AF1/J(N2); TgCRND8.B6AF1/J(N3). Male and female transgenic mice were given daily subcutaneous (compound BX) or oral (compounds BW and BZ) administrations of the appropriate compounds for 8 or 16 weeks.
(§5) Baseline animals consisted of 9±1 week old naive TgCRND8.B6AF1/J animals from the 2nd and 3rd generations. These mice were used to determine the extent of cerebral amyloid deposits and Aβ levels in the plasma and brain of naive transgenic animals at the initiation of treatment.
(§6) Starting at 9 weeks of age (±1 week) animals received daily administration of their respective treatment for a period of 8 or 16 weeks, at a dose of 30 or 100 mg/kg at 10 ml/kg. The route of administration was subcutaneous for water-soluble compounds (Compound BX) and oral for compounds solubilized in methylcellulose 1% (MC 1%) (Compounds BW and BZ). At the end of the treatment periods, plasma and perfused brains were collected for quantification of Aβ levels.
(§7) Animal health was monitored, samples were collected and Aβ levels were measured as described above in the short term treatment study. Compounds were scored based on their ability to modulate levels of Aβ peptides in the plasma and the cerebral soluble/insoluble levels in the brain. Levels of Aβ observed in the plasma and brain of treated animals were compared to that of vehicle-treated (water) or methylcellulose-treated control groups and ranked according to the strength of the pharmacological effect. Increases in the levels of Aβ peptides are indicated using “+” symbols, while decreases in the levels of Aβ peptides are indicated using “−” symbols. The strongest effects are recorded as “+++” or “−−−” while the weakest are shown as “+” or “−”.
(§8) Specifically, increases in the levels of Aβ (relative to vehicle treated control) of 5 to 14% are scored as “+”; increases of 15 to 29% are scored as “++”; and increases of 30% or higher are scored as “+++”. Decreases in the levels of Aβ of 5 to 14% are scored as “−”; decreases of 15 to 29% are scored as “−−”; and decreases of 30% or more are scored as “−−−”. […]

[2] = tested on: Aβ40 and Aβ42 peptides in plasma and brain of TgCRND8 mice; assay: as above; type: in vivo, Mouse
Text: as §1, §2, §3, §4, §5, §6, §7, §8

SMILES	Brain Abeta40 insoluble ([1]; 30 mg/kg daily, 8 wks)	Brain Abeta40 soluble ([1]; 30 mg/kg daily, 8 wks)	Brain Abeta42 insoluble ([1]; 30 mg/kg daily, 8 wks)	Brain Abeta42 soluble ([1]; 30 mg/kg daily, 8 wks)	Plasma Abeta40 ([1]; 30 mg/kg daily, 8 wks)	Plasma Abeta42 ([1]; 30 mg/kg daily, 8 wks)	Brain Abeta40 insoluble ([1]; 30 mg/kg daily, 16 wks)	Brain Abeta40 soluble ([1]; 30 mg/kg daily, 16 wks)	Brain Abeta42 insoluble ([1]; 30 mg/kg daily, 16 wks)	Brain Abeta42 soluble ([1]; 30 mg/kg daily, 16 wks)	Plasma Abeta40 ([1]; 30 mg/kg daily, 16 wks)	Plasma Abeta42 ([1]; 30 mg/kg daily, 16 wks)	Brain Abeta40 insoluble ([1]; 100 mg/kg daily, 8 wks)	Brain Abeta40 soluble ([1]; 100 mg/kg daily, 8 wks)	Brain Abeta42 insoluble ([1]; 100 mg/kg daily, 8 wks)	Brain Abeta42 soluble ([1]; 100 mg/kg daily, 8 wks)	Plasma Abeta40 ([1]; 100 mg/kg daily, 8 wks)	Plasma Abeta42 ([1]; 100 mg/kg daily, 8 wks)	Brain Abeta40 insoluble ([1]; 100 mg/kg daily, 16 wks)	Brain Abeta40 soluble ([1]; 100 mg/kg daily, 16 wks)	other results
O=S(=O)(O)CCCNC12CC3CC(CC(C3)C1)C2 [BW, 3-(1-adamantyl)amino-1-propanesulfonic acid]	−− (decreases of 15 to 29% are scored as “−−”)	− (Decreases in the levels of Aβ of 5 to 14% are scored as “−”)	0 (changes of 4% or less in either direction are scored as “0”)	−− (decreases of 15 to 29% are scored as “−−”)	−−− (decreases of 30% or more are scored as “−−−”)	−−− (decreases of 30% or more are scored as “−−−”)	++ (increases of 15 to 29% are scored as “++”)	+ (increases in the levels of Aβ (relative to vehicle treated control) of 5 to 14% are scored as “+”)	+ (increases in the levels of Aβ (relative to vehicle treated control) of 5 to 14% are scored as “+”)	− (Decreases in the levels of Aβ of 5 to 14% are scored as “−”)	−− (decreases of 15 to 29% are scored as “−−”)	−− (decreases of 15 to 29% are scored as “−−”)	−−− (decreases of 30% or more are scored as “−−−”)	−− (decreases of 15 to 29% are scored as “−−”)	−−− (decreases of 30% or more are scored as “−−−”)	−− (decreases of 15 to 29% are scored as “−−”)	− (Decreases in the levels of Aβ of 5 to 14% are scored as “−”)	− (Decreases in the levels of Aβ of 5 to 14% are scored as “−”)	+ (increases in the levels of Aβ (relative to vehicle treated control) of 5 to 14% are scored as “+”)	++ (increases of 15 to 29% are scored as “++”)	Brain Abeta42 insoluble ([1]; 100 mg/kg daily, 16 wks): ++ (increases of 15 to 29% are scored as “++”); Brain Abeta42 soluble ([1]; 100 mg/kg daily, 16 wks): + (increases in the levels of Aβ (relative to vehicle treated control) of 5 to 14% are scored as “+”); Plasma Abeta40 ([1]; 100 mg/kg daily, 16 wks): − (Decreases in the levels of Aβ of 5 to 14% are scored as “−”); Plasma Abeta42 ([1]; 100 mg/kg daily, 16 wks): − (Decreases in the levels of Aβ of 5 to 14% are scored as “−”); brain and plasma levels of Aβ ([2]; at 8 weeks): dramatic decrease; plasma levels of Aβ ([2]; at 16 weeks): dramatic decrease
CC(C)(C)NCCCS(=O)(=O)O [BX, 3-(t-butyl)amino-1-propanesulfonic acid]	−−− (decreases of 30% or more are scored as “−−−”)	−−− (decreases of 30% or more are scored as “−−−”)	−− (decreases of 15 to 29% are scored as “−−”)	−−− (decreases of 30% or more are scored as “−−−”)	+ (increases in the levels of Aβ (relative to vehicle treated control) of 5 to 14% are scored as “+”)	+ (increases in the levels of Aβ (relative to vehicle treated control) of 5 to 14% are scored as “+”)	−−− (decreases of 30% or more are scored as “−−−”)	−− (decreases of 15 to 29% are scored as “−−”)	− (Decreases in the levels of Aβ of 5 to 14% are scored as “−”)	0 (changes of 4% or less in either direction are scored as “0”)	− (Decreases in the levels of Aβ of 5 to 14% are scored as “−”)	− (Decreases in the levels of Aβ of 5 to 14% are scored as “−”)	++ (increases of 15 to 29% are scored as “++”)	+ (increases in the levels of Aβ (relative to vehicle treated control) of 5 to 14% are scored as “+”)	0 (changes of 4% or less in either direction are scored as “0”)	+ (increases in the levels of Aβ (relative to vehicle treated control) of 5 to 14% are scored as “+”)	++ (increases of 15 to 29% are scored as “++”)	+++ (increases of 30% or higher are scored as “+++”)	−−− (decreases of 30% or more are scored as “−−−”)	− (Decreases in the levels of Aβ of 5 to 14% are scored as “−”)	Brain Abeta42 insoluble ([1]; 100 mg/kg daily, 16 wks): −− (decreases of 15 to 29% are scored as “−−”); Brain Abeta42 soluble ([1]; 100 mg/kg daily, 16 wks): 0 (changes of 4% or less in either direction are scored as “0”); Plasma Abeta40 ([1]; 100 mg/kg daily, 16 wks): − (Decreases in the levels of Aβ of 5 to 14% are scored as “−”); Plasma Abeta42 ([1]; 100 mg/kg daily, 16 wks): 0 (changes of 4% or less in either direction are scored as “0”); amount of Aβ in the brain ([2]; at both 8 and 16 weeks): dramatic decrease
